Measurements reported in the NIST ThermoML archive (doi:10.1016/j.jct.2019.02.031).

Assay: xn = mol fraction of the nth substance listed
Conditions: 101 kPa, Liquid; for mass density: Vibrating tube method; for viscosity: Falling or rolling sphere viscometry

Cn1cc[n+](CCC[N+](C)(C)C)c1.N#C[N-]C#N.N#C[N-]C#N + CC(C)O
Conditions | mass density [kg/m3] | viscosity [mPa·s]
308.15 K, x1 = 0.1001 | 887.61 | –
308.15 K, x1 = 0.2 | 962.09 | –
308.15 K, x1 = 0.2999 | 1013.25 | –
308.15 K, x1 = 0.4 | 1050.12 | –
308.15 K, x1 = 0.5001 | 1078.35 | –
308.15 K, x1 = 0.5998 | 1099.87 | –
308.15 K, x1 = 0.7002 | 1116.01 | –
308.15 K, x1 = 0.8001 | 1128.64 | –
308.15 K, x1 = 0.8985 | 1139.04 | –
308.15 K, x1 = 1 | 1147.8 | –
313.15 K, x1 = 0.1001 | 884.01 | 5.069
313.15 K, x1 = 0.2 | 959.16 | 11.51
313.15 K, x1 = 0.2999 | 1009.82 | 20.53
313.15 K, x1 = 0.4 | 1046.89 | 36.31
313.15 K, x1 = 0.5001 | 1075.26 | 58.15
313.15 K, x1 = 0.5998 | 1096.85 | 77.62
313.15 K, x1 = 0.7002 | 1113.12 | 107.2
313.15 K, x1 = 0.8001 | 1125.89 | 138.5
313.15 K, x1 = 0.8985 | 1136.19 | 207.8
313.15 K, x1 = 1 | 1144.89 | 324.6
318.15 K, x1 = 0.1001 | 880.4 | 4.515
318.15 K, x1 = 0.2 | 955.64 | 10.08
318.15 K, x1 = 0.2999 | 1006.35 | 17.42
318.15 K, x1 = 0.4 | 1043.68 | 30.62
318.15 K, x1 = 0.5001 | 1072.32 | 48.57
318.15 K, x1 = 0.5998 | 1094.09 | 63.07
318.15 K, x1 = 0.7002 | 1110.26 | 85.59
318.15 K, x1 = 0.8001 | 1123.09 | 109
318.15 K, x1 = 0.8985 | 1133.33 | 160.3
318.15 K, x1 = 1 | 1142 | 239.7
323.15 K, x1 = 0.1001 | 876.76 | 4.052
323.15 K, x1 = 0.2 | 952.12 | 8.828
323.15 K, x1 = 0.2999 | 1002.86 | 15.18
323.15 K, x1 = 0.4 | 1040.46 | 26.11
323.15 K, x1 = 0.5001 | 1069.5 | 40.73
323.15 K, x1 = 0.5998 | 1091.18 | 52.16
323.15 K, x1 = 0.7002 | 1107.31 | 70.03
323.15 K, x1 = 0.8001 | 1120.31 | 86.93
323.15 K, x1 = 0.8985 | 1130.45 | 125.4
323.15 K, x1 = 1 | 1139.11 | 181.2
328.15 K, x1 = 0.1001 | 873.09 | 3.672
328.15 K, x1 = 0.2 | 948.69 | 7.836
328.15 K, x1 = 0.2999 | 1000.05 | 13.38
328.15 K, x1 = 0.4 | 1037.56 | 22.57
328.15 K, x1 = 0.5001 | 1066.62 | 34.87
328.15 K, x1 = 0.5998 | 1088.47 | 45.82
328.15 K, x1 = 0.7002 | 1104.35 | 58.38
328.15 K, x1 = 0.8001 | 1117.52 | 71.22
328.15 K, x1 = 0.8985 | 1127.59 | 101.4
328.15 K, x1 = 1 | 1136.24 | 141.1
333.15 K, x1 = 0.1001 | 869.4 | 3.36
333.15 K, x1 = 0.2 | 945.77 | 6.989
333.15 K, x1 = 0.2999 | 996.95 | 11.94
333.15 K, x1 = 0.4 | 1034.62 | 19.89
333.15 K, x1 = 0.5001 | 1063.89 | 29.99
333.15 K, x1 = 0.5998 | 1085.59 | 39.36
333.15 K, x1 = 0.7002 | 1101.65 | 49.32
333.15 K, x1 = 0.8001 | 1114.82 | 59.34
333.15 K, x1 = 0.8985 | 1124.75 | 83.14
333.15 K, x1 = 1 | 1133.4 | 111.9
